Reference: patent US5710012A, “Salt of 6-carboxy-3-methylbenzothiazolone hydrazone hydrate in colorimetric determination of hydrogen peroxide” (ActiMed Laboratories, Inc., priority 1994, dated 1998)
Where a name gives a salt, the structure may show the parent alone. Read-outs that look alike come from different tables or passages of the source.

What was measured:
[1] = cited from earlier work
[2] = Solubility Comparison in pH 7 buffer; assay type: physicochemical; settings: for solubility: 0.1m phosphate buffer, aqueous buffer, pH 7 buffer (phosphate, 0.1M); for Water added: to dissolve 100 mg completely, pH 7 buffer (phosphate, 0.1M) instead of water
Method: (§1) The solubility of MBTH.HCl was compared with that of NaCMBTH. One hundred mg samples of each of MBTH.HCl (Aldrich) and NaCMBTH were placed into test tubes. Water was added in 50 μ-L aliquots until the sample completely dissolved.
An identical experiment was performed using pH 7 buffer (phosphate, 0.1M) instead of water.

[3] = Relative Molar Extinction Coefficients (absorbance of dye formed with N-ethylanilinopropanamine, POD and H2O2); assay type: physicochemical; settings: pH 6.5 phosphate buffer, same molar concentration, coupled with N-ethylanilinopropanamine hydrochloride
Method: The relative absorbance of MBTH and sodium carboxy MBTH, an illustrative soluble hydrazone compound, was measured and compared. Since each compound was measured at the same molar concentration, the molar extinction was proportional to the […].
Each sample contained the following:
1 mL phosphate buffer, 0.035M, pH 6.5
10 μL R-MBTH solution, 10 mM, where R=H or COONa
100 μL N-ethylanilinopropanamine hydrochloride, 10 mM
10 μL POD solution, ~120 IU/mL
A 1-mL aliquot of each solution was transferred to a cuvette and diluted with an addition 2 mL of phosphate buffer solution.

[4] = Solubility Comparison in water; assay type: physicochemical; settings: for Water added: to dissolve 100 mg completely
Method: as §1

[5] = Heat Stability on coated polyester fabric at 120° C.; assay type: physicochemical; settings: for Density: 120° C., absorbance at 310 nm
Method: In order to evaluate the heat stability of sodium carboxy MBTH, 38 mg. of either MBTH.HCl or NaCMBTH was added to 1.2 mL water to dissolve. Then, 0.75 mL of this solution was added to 21 mg Hydrisel SX 660, a commercial surfactant and […] 0.1% ACP polymer (ISP Technologies), prepared in 70% isopropanol solution. Each solution was coated onto a 4-inch wide polyester fabric in a thin layer and dried at 40° C. for fifteen minutes. The coated fabric was sealed in an airtight foil bag and stored at 4° C.
Small samples (2 cm×5 cm) of each coated fabric were placed into a 120° C. oven and removed at appropriate intervals. The heat-stressed fabric samples were assayed spectrophotometrically.
The fabric samples were placed into a tared test tube and weighed. Ten mL of 20 mM phosphate buffer, pH 7.0, was added. The tubes were capped and agitated for ten minutes at room temperature. Absorbance at 310 nm was read for each sample and the values were compared against a standard curve.

| solubility [2] [mg/mL] | Water added [2] [µL] | Absorbance at 600 nm [3] [absorbance units] | solubility [4] [mg/mL] | Water added [4] [µL] | Density ([5]; time 0) [mg/m^2] | Density ([5]; time 4 (hours)) [mg/m^2] | heat stability ([5]; after only two hours at 120° C.) | Density ([5]; time 6 (hours)) [mg/m^2] | Density ([5]; time 23 (hours)) [mg/m^2] | heat stability ([5]; after 23 hours at 120° C.) | Compound | solubility in water compared with MBTH ([1]; U.S. Pat. No. 4,101,381) | water solubility of the dye formed in the color reactions [1] | heat stability ([1]; dry form, 60° C., as noted in U.S. Pat. No. 4,101,381) | usable pH (autoxidative color reaction otherwise) ([1]; pH, absence of hydrogen peroxide) | heat stability ([5]; after six hours at 120° C.) |
| --- | --- | --- | --- | --- | --- | --- | --- | --- | --- | --- | --- | --- | --- | --- | --- | --- |
| – | – | – | – | – | – | – | – | – | – | – | Cn1c(=NNS(=O)(=O)O)sc2ccccc21 [3-methyl-2-sulfonyl-benzothiazolononhydrazone] | much poorer solubility in water than MBTH | – | – | – | – |
| < 10 | > 9600 | 0.1513 | 34 | 2900 | 114.7 | 10.2 | effectively decomposed | – | – | – | Cn1c(=NN)sc2ccccc21 [MBTH.HCl, 3-methyl benzothiazolone-2-hydrazone HCL] | – | relatively poor water solubility | insufficiently stable | below 7 | – |
| 174 | 575 | 0.2115 | 87 | 1150 | 75.4 | 50.4 | – | 51.2 | 50.3 | retains most of its activity | Cn1c(=NN)sc2cc(C(=O)O)ccc21 [NaCMBTH, 3-methylbenzothiazolone-2-hydrazone-6-carboxylic acid, sodium salt] | – | – | – | – | still viable |
